Data as given in patent US9096591B2, “Tetracyclic compounds” (Medivation Technologies, Inc., priority 2007, dated 2015).
Like-named read-outs stand apart in the source and are kept apart here.

Columns and labels:
[1] = molecular target: T1, human recombinant histamine H2 receptor (Homo sapiens, UniProt P25021); test: Histamine H2 radioligand binding ([125I]Aminopotentidine)
T1 construct: expressed in transfected cells; host or cells: CHO-K1 cells
Method in brief: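 Test compounds were assessed for their ability to displace radioligand from the human recombinant histamine H2 receptor. Non-specific binding was determined in the presence of 3 μM Tiotidine, and results were expressed as percent inhibition of specific binding, with 1% DMSO serving as the vehicle.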

[2] = molecular target: T2, human recombinant adrenergic α1D receptor (Homo sapiens, UniProt P25100); test: Adrenergic α1D radioligand binding ([3H]Prozosin); set-up: Inhibition of ligand binding, Adren. alpha1D: concentration or dose not given beside the values; settings: for Inhibition of ligand binding, Adren. alpha1D: percent inhibition of specific binding; for inhibition at 1 µM: compounds screened at 1 μM, read-out: Inhibition of ligand binding, Adren. alpha1D (percent inhibition of specific binding)
T2 construct: expressed in transfected cells; host or cells: HEK-293 cells
T2 sequence (P25100 1-572): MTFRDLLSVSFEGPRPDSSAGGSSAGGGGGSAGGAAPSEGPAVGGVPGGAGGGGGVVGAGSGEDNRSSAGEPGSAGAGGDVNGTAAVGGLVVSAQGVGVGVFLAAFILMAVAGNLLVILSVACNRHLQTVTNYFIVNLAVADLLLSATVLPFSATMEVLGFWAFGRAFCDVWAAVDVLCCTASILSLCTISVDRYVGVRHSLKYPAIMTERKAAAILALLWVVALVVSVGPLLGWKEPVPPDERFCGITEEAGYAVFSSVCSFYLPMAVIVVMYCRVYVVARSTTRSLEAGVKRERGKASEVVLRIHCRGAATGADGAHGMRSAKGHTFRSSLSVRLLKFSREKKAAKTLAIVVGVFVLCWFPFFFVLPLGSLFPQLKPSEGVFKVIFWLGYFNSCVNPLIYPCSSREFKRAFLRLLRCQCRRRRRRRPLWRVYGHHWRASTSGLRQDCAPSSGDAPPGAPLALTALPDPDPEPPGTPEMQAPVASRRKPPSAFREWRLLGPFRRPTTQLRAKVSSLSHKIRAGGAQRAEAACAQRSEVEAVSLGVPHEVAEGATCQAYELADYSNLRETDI
Description: Compounds of invention were incubated with 0.6 nM [^3H]Prozosin for 60 minutes at 25° C. Non-specific binding was estimated in the presence of 10 μM phentolamine. Receptor proteins were filtered and washed, the filters were then counted to determine [^3H]Prozosin specifically bound. […] Biochemical assay results are presented as the percent inhibition of specific binding in Table 6.

[3] = molecular target: T3, human recombinant adrenergic α2A receptor (Homo sapiens, UniProt P08913); test: Adrenergic α2A radioligand binding ([3H]MK-912); set-up: Inhibition of ligand binding, Adren. alpha2A: concentration or dose not given beside the values; settings: for Inhibition of ligand binding, Adren. alpha2A: percent inhibition of specific binding; for inhibition at 1 µM: compounds screened at 1 μM, read-out: Inhibition of ligand binding, Adren. alpha2A (percent inhibition of specific binding)
T3 construct: expressed in transfected cells; host or cells: insect Sf9 cells
T3 sequence (P08913 1-465): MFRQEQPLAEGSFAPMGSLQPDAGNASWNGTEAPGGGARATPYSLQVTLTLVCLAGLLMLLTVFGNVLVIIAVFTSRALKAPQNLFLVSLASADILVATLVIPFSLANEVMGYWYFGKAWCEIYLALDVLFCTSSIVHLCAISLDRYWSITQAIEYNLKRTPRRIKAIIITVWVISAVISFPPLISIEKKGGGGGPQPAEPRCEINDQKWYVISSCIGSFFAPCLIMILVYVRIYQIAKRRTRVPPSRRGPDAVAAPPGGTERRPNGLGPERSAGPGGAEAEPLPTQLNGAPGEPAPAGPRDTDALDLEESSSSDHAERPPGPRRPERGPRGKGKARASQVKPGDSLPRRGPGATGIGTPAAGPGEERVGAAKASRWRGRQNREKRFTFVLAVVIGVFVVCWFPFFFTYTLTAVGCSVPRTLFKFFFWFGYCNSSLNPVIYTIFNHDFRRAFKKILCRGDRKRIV
Method in brief: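 Membranes from Sf9 cells expressing the receptor were incubated with 1 nM [3H]MK-912 for 60 minutes at 25° C in 50 mM Tris-HCl pH 7.4, 12.5 mM MgCl2, 2 mM EDTA. 10 μM WB-4101 defined non-specific binding. Values are percent inhibition of specific bound radioactivity after filtration.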

[4] = molecular target: T4, Serotonin (5-Hydroxytryptamine) 5-HT7 (Homo sapiens, UniProt P34969); test: Serotonin 5-HT7 radioligand binding ([3H]LSD); set-up: Inhibition of ligand binding, Ser. 5-HT7: concentration or dose not given beside the values; settings: for Inhibition of ligand binding, Ser. 5-HT7: percent inhibition of specific binding; for inhibition at 1 µM: compounds screened at 1 μM, read-out: Inhibition of ligand binding, Ser. 5-HT7 (percent inhibition of specific binding)
T4 construct: expressed in transfected cells; host or cells: CHO cells
Description: Lysergic acid diethylamide (LSD) for 2 hours at 25° C. […] Receptor proteins were filtered and washed, the filters were then counted to determine [^3H]LSD specifically bound. […] Biochemical assay results are presented as the percent inhibition of specific binding in Table 6.

[5] = percent inhibition of specific binding, screened at 1 μM, read-out: Inhibition of ligand binding, Hist. H2
[6] = 1 μM compound, 0.1 nM [125I]Aminopotentidine, read-out: Histamine Binding H2, percent inhibition of specific binding
[7] = compounds screened at 1 μM, read-out: Inhibition of ligand binding, Hist. H2 (percent inhibition of specific binding)

T4 sequence (P34969 whole entry): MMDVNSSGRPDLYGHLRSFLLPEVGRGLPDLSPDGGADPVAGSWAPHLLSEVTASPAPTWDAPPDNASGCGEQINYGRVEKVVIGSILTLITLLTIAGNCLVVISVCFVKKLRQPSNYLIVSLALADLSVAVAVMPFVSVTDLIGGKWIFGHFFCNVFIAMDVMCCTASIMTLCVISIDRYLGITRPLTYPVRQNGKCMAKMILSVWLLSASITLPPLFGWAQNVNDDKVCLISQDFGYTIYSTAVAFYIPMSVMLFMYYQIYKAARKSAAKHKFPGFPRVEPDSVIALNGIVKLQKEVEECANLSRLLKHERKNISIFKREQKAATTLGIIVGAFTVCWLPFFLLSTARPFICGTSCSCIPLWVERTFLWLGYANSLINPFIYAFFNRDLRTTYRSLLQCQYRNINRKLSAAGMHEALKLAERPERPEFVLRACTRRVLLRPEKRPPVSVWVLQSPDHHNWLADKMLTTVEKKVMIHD
T1 sequence (P25021 whole entry): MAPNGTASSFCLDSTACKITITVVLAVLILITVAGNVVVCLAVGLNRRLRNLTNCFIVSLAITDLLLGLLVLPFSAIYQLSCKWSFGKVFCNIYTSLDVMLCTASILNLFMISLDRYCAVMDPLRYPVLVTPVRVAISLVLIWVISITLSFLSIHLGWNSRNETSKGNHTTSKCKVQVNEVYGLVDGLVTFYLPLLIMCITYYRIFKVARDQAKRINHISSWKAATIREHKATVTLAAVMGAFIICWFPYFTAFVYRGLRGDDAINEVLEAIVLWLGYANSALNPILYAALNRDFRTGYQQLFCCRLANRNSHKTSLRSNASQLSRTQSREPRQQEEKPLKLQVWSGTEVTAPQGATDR

Structure (SMILES): Cc1ccc2c(c1)c1c(n2Cc2ccc(C)nc2)CCN(C)C1 [Compound 139, 2,3,4,5-tetrahydro-2,8-dimethyl-5-((6-methylpyridin-3-yl)methyl)-1H-pyrido[4,3-b]indole]
- inhibition at 1 µM [1, 5]: 7%
- Inhibition of ligand binding, Adren. alpha1D [2]: 25%
- Inhibition of ligand binding, Adren. alpha2A [3]: 50%
- Inhibition of ligand binding, Ser. 5-HT7 [4]: 74%

Structure (SMILES): CCN1CCc2c(c3cc(C)ccc3n2CCc2ccccn2)C1 [Compound 23, 2-ethyl-2,3,4,5-tetrahydro-8-methyl-5-(2-(pyridin-2-yl)ethyl)-1H-pyrido[4,3-b]indole]
- inhibition at 1 µM [1, 6]: 28%
- inhibition at 1 µM [1, 5]: 28%
- Inhibition of ligand binding, Adren. alpha1D [2]: 61%
- Inhibition of ligand binding, Adren. alpha2A [3]: 57%
- Inhibition of ligand binding, Ser. 5-HT7 [4]: 94%

Structure (SMILES): Cc1ccc2c(c1)c1c(n2CCN2CCCC2)CCN(C)C1 [Compound 221, 2,3,4,5-tetrahydro-2,8-dimethyl-5-(2-(pyrrolidin-1-yl)ethyl)-1H-pyrido[4,3-b]indole]
- inhibition at 1 µM [1, 6]: 52%
- inhibition at 1 µM [1, 5]: 52%
- Inhibition of ligand binding, Adren. alpha1D [2]: 30%
- Inhibition of ligand binding, Adren. alpha2A [3]: 37%
- Inhibition of ligand binding, Ser. 5-HT7 [4]: 36%

Structure (SMILES): CN1CCc2c(c3cc(Cl)ccc3n2CCc2ccccn2)C1 [Compound 30, 8-chloro-2,3,4,5-tetrahydro-2-methyl-5-(2-(pyridin-2-yl)ethyl)-1H-pyrido[4,3-b]indole]
- inhibition at 1 µM [1, 6]: 34%
- inhibition at 1 µM [1, 5]: 34%
- Inhibition of ligand binding, Adren. alpha1D [2]: 68%
- Inhibition of ligand binding, Adren. alpha2A [3]: 84%
- Inhibition of ligand binding, Ser. 5-HT7 [4]: 99%

Structure (SMILES): Cc1ccc2c(c1)c1c(n2CCc2ccc(C(=O)O)nc2)CCN(C)C1 [Compound 255]
- inhibition at 1 µM [1, 6]: -15%
- inhibition at 1 µM [1, 5]: -15%
- Inhibition of ligand binding, Adren. alpha1D [2]: 2%
- Inhibition of ligand binding, Adren. alpha2A [3]: −8%
- Inhibition of ligand binding, Ser. 5-HT7 [4]: 11%

Structure (SMILES): CN1CCc2c(c3ccccc3n2CCc2ccccn2)C1 [Compound 329, 2,3,4,5-tetrahydro-2-methyl-5-(2-(pyridin-2-yl)ethyl)-1H-pyrido[4,3-b]indole]
- inhibition at 1 µM [1, 5]: 16%
- Inhibition of ligand binding, Adren. alpha1D [2]: 4%
- Inhibition of ligand binding, Adren. alpha2A [3]: 37%
- Inhibition of ligand binding, Ser. 5-HT7 [4]: 78%

Structure (SMILES): CN1CCc2c(c3cc(Cl)ccc3n2CCc2ccccc2)C1 [Compound 36, 8-chloro-2,3,4,5-tetrahydro-2-methyl-5-phenethyl-1H-pyrido[4,3-b]indole]
- inhibition at 0.1 µM ([1]; 0.1 μM compound, 0.1 nM [125I]Aminopotentidine, read-out: Histamine Binding H2, percent inhibition of specific binding): 41%
- inhibition at 1 µM [1, 6]: 92%
- inhibition at 1 µM [1, 5]: 92%
- Inhibition of ligand binding, Adren. alpha1D [2]: 87%
- Inhibition of ligand binding, Adren. alpha2A [3]: 97%
- Inhibition of ligand binding, Ser. 5-HT7 [4]: 99%

Structure (SMILES): Cc1ccc2c(c1)c1c(n2CCc2ccc(C)nc2)CC[N+](C)([O-])C1 (centres unmarked) [Example 93, 2,8-dimethyl-5-(2-(6-methylpyridin-3-yl)ethyl)-2,3,4,5-tetrahydro-1H-pyrido[4,3-b]indole 2-oxide]
- Hist. H2 ([1]; inhibition profile): 19
- Adren. alpha1D ([2]; inhibition profile): 19
- Adren. alpha2A ([3]; inhibition profile): 1
- Ser. 5-HT7 ([4]; inhibition profile): 35

Structure (SMILES): Cc1ccc2c(c1)c1c(n2CCC2CCCCC2)CCN(C)C1 [Compound 163, 5-(2-cyclohexylethyl)-2,3,4,5-tetrahydro-2,8-dimethyl-1H-pyrido[4,3-b]indole]
- inhibition at 1 µM [1, 6]: 88%
- inhibition at 1 µM [1, 5]: 88%
- Inhibition of ligand binding, Adren. alpha1D [2]: 49%
- Inhibition of ligand binding, Adren. alpha2A [3]: 93%
- Inhibition of ligand binding, Ser. 5-HT7 [4]: 95%

Structure (SMILES): CN1CCc2c(c3ccccc3n2CCc2noc(-c3ccccc3)n2)C1 [Compound C4-1]
- inhibition at 1 µM [1, 7]: 47%
- inhibition at 1 µM [2]: 60%
- inhibition at 1 µM [3]: 95%
- inhibition at 1 µM [4]: 88%

Structure (SMILES): CCOC(=O)N1CCc2c(c3cc(Br)ccc3n2CCc2ccc(C)nc2)C1 [Compound 18, ethyl 8-bromo-3,4-dihydro-5-(2-(6-methylpyridin-3-yl)ethyl)-1H-pyrido[4,3-b]indole-2(5H)-carboxylate]
- inhibition at 1 µM [1, 6]: 1%
- inhibition at 1 µM [1, 5]: 1%
- Inhibition of ligand binding, Adren. alpha1D [2]: −10%
- Inhibition of ligand binding, Adren. alpha2A [3]: −10%
- Inhibition of ligand binding, Ser. 5-HT7 [4]: 10%

Structure (SMILES): Cc1ccc2c(c1)c1c(n2CCc2ccccc2F)CCN(C)C1 [Compound 34, 5-(2-fluorophenethyl)-2,3,4,5-tetrahydro-2,8-dimethyl-1H-pyrido[4,3-b]indole]
- inhibition at 1 µM [1, 6]: 89%
- inhibition at 1 µM [1, 5]: 89%
- Inhibition of ligand binding, Adren. alpha1D [2]: 76%
- Inhibition of ligand binding, Adren. alpha2A [3]: 99%
- Inhibition of ligand binding, Ser. 5-HT7 [4]: 97%

Structure (SMILES): CCN1CCc2c(c3cc(C)ccc3n2Cc2ccc(C)nc2)C1 [Compound 138, 2-ethyl-2,3,4,5-tetrahydro-8-methyl-5-((6-methylpyridin-3-yl)methyl)-1H-pyrido[4,3-b]indole]
- inhibition at 1 µM [1, 6]: 27%
- inhibition at 1 µM [1, 5]: 27%
- Inhibition of ligand binding, Adren. alpha1D [2]: 33%
- Inhibition of ligand binding, Adren. alpha2A [3]: 31%
- Inhibition of ligand binding, Ser. 5-HT7 [4]: 23%

Structure (SMILES): Cc1ccc2c(c1)c1c(n2CCc2noc(-c3ccccc3)n2)CCN(C)C1 [Compound C4-4]
- inhibition at 1 µM [1, 7]: 68%
- inhibition at 1 µM [2]: 92%
- inhibition at 1 µM [3]: 96%
- inhibition at 1 µM [4]: 96%

Structure (SMILES): Cc1ccc2c(c1)c1c(n2CCc2ccc(Cl)cc2)CCN(C)C1 [Compound 32, 5-(4-chlorophenethyl)-2,3,4,5-tetrahydro-2,8-dimethyl-1H-pyrido[4,3-b]indole]
- inhibition at 0.3 µM ([1]; 0.3 μM compound, 0.1 nM [125I]Aminopotentidine, read-out: Histamine Binding H2, percent inhibition of specific binding): 99%
- inhibition at 1 µM [1, 6]: 101%
- inhibition at 1 µM [1, 5]: 101%
- Inhibition of ligand binding, Adren. alpha1D [2]: 94%
- Inhibition of ligand binding, Adren. alpha2A [3]: 97%
- Inhibition of ligand binding, Ser. 5-HT7 [4]: 101%

Structure (SMILES): Cc1ccc2c(c1)c1c(n2CCC(=O)N2CCC(N)CC2)CCN(C)C1 [Compound 231, 1-(4-aminopiperidin-1-yl)-3-(1,2,3,4-tetrahydro-2,8-dimethylpyrido[4,3-b]indol-5-yl)propan-1-one]
- inhibition at 1 µM [1, 6]: 4%
- inhibition at 1 µM [1, 5]: 4%
- Inhibition of ligand binding, Adren. alpha1D [2]: 21%
- Inhibition of ligand binding, Adren. alpha2A [3]: 29%
- Inhibition of ligand binding, Ser. 5-HT7 [4]: 0%

Structure (SMILES): CN1CCc2c(c3cc(Cl)ccc3n2CCc2noc(-c3ccccc3)n2)C1 [Compound C4-6]
- inhibition at 1 µM [1, 7]: 68%
- inhibition at 1 µM [2]: 84%
- inhibition at 1 µM [3]: 96%
- inhibition at 1 µM [4]: 90%

Structure (SMILES): Cc1ccc2c(c1)c1c(n2CCc2ccc(C)nc2)C(Br)C(=O)N(C)C1 (centres unmarked) [Compound 232, 4-bromo-1,2-dihydro-2,8-dimethyl-5-(2-(6-methylpyridin-3-yl)ethyl)-4H-pyrido[4,3-b]indol-3(5H)-one]
- inhibition at 1 µM [1, 6]: 3%
- inhibition at 1 µM [1, 5]: 3%
- Inhibition of ligand binding, Adren. alpha1D [2]: 5%
- Inhibition of ligand binding, Adren. alpha2A [3]: 2%
- Inhibition of ligand binding, Ser. 5-HT7 [4]: 6%
